Measured values taken from article PMC9012467 (Science Advances, 2022).

Legend:
[1] = molecular target: T1, PPPDE2 (Homo sapiens, UniProt Q6ICB0); experiment: fluorogenic assay coupled to beta-glucosidase; assay type: biochemical; settings: 10 μM substrate, 20 μg beta-glucosidase, pH 5.0, 37°C
T1 sequence (Q6ICB0 1-168): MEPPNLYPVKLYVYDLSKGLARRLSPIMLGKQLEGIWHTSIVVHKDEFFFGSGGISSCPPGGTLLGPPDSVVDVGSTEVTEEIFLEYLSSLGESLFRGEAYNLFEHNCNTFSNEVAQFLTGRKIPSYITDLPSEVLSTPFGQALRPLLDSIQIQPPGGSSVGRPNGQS

[2] = molecular target: PPPDE1 (Homo sapiens, UniProt Q9BSY9); experiment: fluorogenic assay coupled to beta-glucosidase; assay type: biochemical; settings: 10 μM substrate, 20 μg beta-glucosidase, pH 5.0, 37°C
Sequence of PPPDE1 (Q9BSY9 whole entry): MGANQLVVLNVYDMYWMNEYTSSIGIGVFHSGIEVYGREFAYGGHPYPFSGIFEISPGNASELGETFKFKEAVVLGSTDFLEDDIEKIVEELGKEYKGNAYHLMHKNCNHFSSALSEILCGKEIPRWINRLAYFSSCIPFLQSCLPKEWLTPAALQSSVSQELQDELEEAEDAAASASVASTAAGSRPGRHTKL

CCCCCCCCCCCCCCCC(=O)SC[C@H]1O[C@@H](Oc2ccc3c(C)cc(=O)oc3c2)[C@H](O)[C@@H](O)[C@@H]1O [MU-6S-palm-βGlc, 4-methylumbelliferyl 6-thio-palmitate-β-D-glucopyranoside]
fluorogenic assay coupled to beta-glucosidase [1]: both showed high S-depalmitoylation activity by assaying DPP-5 or MU-6S-palm-βGlc
fluorogenic assay coupled to beta-glucosidase [2]: both showed high S-depalmitoylation activity by assaying DPP-5 or MU-6S-palm-βGlc
